# Results taken from US11246874B1, “Treatment of COVID-19” (Oxygen Biotech LLC, priority 2021, dated 2022).
# What was measured:
# Assay type in all cases: cell-based
# [1] = tested on: Vero-E6 cells (ATCC CRL-1586); assay: Cytotoxicity in Vero-E6 cell culture (Cell Counting Kit-8); settings: 48 h incubation, range 0-15.2 μg/μl
# Description: The toxicity of the test substance was measured in a culture of Vero-E6 cells (ATCC CRL-1586). Cells were cultured in a 96-well microtiter plate (2×10^4 cells per well) for 24 h at 37° C. and 5% CO2. Then, the test substance was added to the cells in a concentration range of 0-15.2 μg/μ1, and the thus treated cells were subsequently incubated for another 48 h. The viability of the cells was then determined using the Cell Counting Kit-8 kit (Dojindo Molecular Technologies, Munich, Germany), exactly according to the manufacturer's instructions. Results are depicted in FIG. 1. The maximum non-toxic concentration of test substance in Vero-E6 cell culture was 3.8 μg/μl.
# [2] = tested on: SARS-CoV-2 virus, strain S-007; assay: Infection of Vero cells with SARS-CoV-2; viral RNA (E-gene) in supernatant by 1-step RT-qPCR; settings: bazedoxifene 10 μM in DMSO, 2 days of culture
# Description: 0.15×10^6/ml Vero cells were infected with SARS-CoV-2 virus, an isolate from the environment, strain designated as S-007, provided by the Těchonin Biological Protection Department. Vero cells were then incubated in Dulbecco's Modified Eagle's Medium (DMEM) with 2% fetal bovine serum (FBS), DMSO 1 μl/ml, or in culture medium with bazedoxifene 10 […] in DMSO dosed from a starting stock solution of 10 mM bazedoxifene in DMSO, corresponding to a bazedoxifene concentration of […]. After 2 days of culture, the virus was quantified in the cell supernatant as follows.
# Viral RNA was detected by 1-step RT-qPCR. Total RNA was isolated from 200 μl of supernatant of SARS-CoV-2 infected cells using magnetic beads. SARS-CoV-2 RNA was determined by amplifying the SARS-CoV-2 E-gene (Generi Biotech) using the SensiFast Probe One-Step Kit (BioLine) and Light Cycler 480 II (Roche). Viral RNA was quantified absolutely using a calibration curve.
# [3] = tested on: SARS-CoV-2 virus (strain SARS-CoV-2/human/Czech Republic/951/2020); assay: Antiviral testing in Vero-E6 cells, virus titer by plaque titration; settings: Vero-E6, 3.8 μg/μl, MOI 0.1, 48 h
# Description: Confluent culture of Vero-E6 cells (ATCC CRL-1586) was used to test for antiviral activity. Cells were cultured in a 96-well microtiter plate (2×10^4 cells per well) for 24 h at 37° C. and 5% CO2. The culture medium was then aspirated and replaced with fresh medium containing the test substance in a concentration range of 0-3.8 μg/μl. At the same time, the cells were infected with the SARS-CoV-2 virus (strain SARS-CoV-2/human/Czech Republic/951/2020) at a multiplicity of infection of 0.1. The thus treated and infected cells were incubated for 48 h at 37° C. and 5% CO2. The medium was then aspirated from the culture wells and the virus titer was determined by plaque titration (Stefanik et al., Microorganisms 2021, 9 (3), 471; https://doi.org/10.3390/microorganisms9030471).
# Results are depicted in FIG. 2.
substance,measurement,setting,value
bazedoxifene,maximum non-toxic concentration,[1],3.8 µg/µL
same,% of DMSO,[2]; E-gene copies,0.17%
same,Fold decrease compared to DMSO,[2]; E-gene copies,578.09
same,E-gene No. of copies of the gene/ml,[2]; cell supernatant,5.39 × 10^7 copies of the gene/ml
same,decrease of titer in the treated group,[3]; versus control group,approximately 1 log10 pfu/ml
same,mean virus titer,[3]; control group 7.4 log10 pfu/ml,6.3 log10 pfu/ml
